In patent publication US20060241082A1, “Modulating vesicular monoamine transporter trafficking and function: a novel approach for the treatment of parkinson's disease” (priority 2002, published 2006):
Counter-ions that a name gives are not always drawn.

Legend:
[1] = Striatal tissue DA content of treated rats (HPLC); assay type: in vivo, rat
Description: On the day of the assay, frozen tissue samples were thawed, sonicated for 3-5 s in tissue buffer (0.05 M sodium phosphate/0.03 M citric acid buffer with 15% methanol (v/v); pH 2.78), and centrifuged for 15 min at 22,000×g. Tissue pellets were retained and protein determined according to the method of Lowry et al. (1951). The supernatant was centrifuged a second time for 15 min at 22,000×g. 20 μl of supernatant were injected onto a high performance liquid chromatograph system coupled to an electrochemical detector (+0.73 V) for separation and quantitation of dopamine levels using the method of Chapin et al. (1986).

[2] = Vesicular DA content in purified striatal vesicles of treated rats; assay type: in vivo, rat; conditions: rats, reserpine 10 mg/kg i.p. 6 and 1 h before decapitation
Description: Purified striatal vesicles were prepared as described above. The resulting vesicular pellet was sonicated for approximately 5 sec in cold tissue buffer (0.05 M sodium phosphate/0.03 M citric acid buffer with 15% methanol (v/v); pH 2.5) at a concentration of 100 mg/ml (original wet weight of tissue), and centrifuged for 15 min at 22,000×g. Tissue pellets were retained and protein was determined according to the method of Lowry et al. (1951). 40 μl of supernatant was injected onto a high performance liquid chromatograph system coupled to an electrochemical detector (+0.73 V) for separation and quantitation of DA levels using the method of Chapin et al. (1986).

DAT [3] = biological target: T1, DAT (Rattus norvegicus, UniProt P23977); assay: In vitro preincubation of striatal synaptosomes with MDMA: [3H]DA uptake and WIN35428 binding; assay type: biochemical; conditions: 10 μM inhibitor 5 min, then 10 μM MDMA 30 min at 37° C.
T1 construct: from tissue; host or cells: striatum of male Sprague-Dawley rats (synaptosomes, P2)
T1 sequence (P23977 whole entry): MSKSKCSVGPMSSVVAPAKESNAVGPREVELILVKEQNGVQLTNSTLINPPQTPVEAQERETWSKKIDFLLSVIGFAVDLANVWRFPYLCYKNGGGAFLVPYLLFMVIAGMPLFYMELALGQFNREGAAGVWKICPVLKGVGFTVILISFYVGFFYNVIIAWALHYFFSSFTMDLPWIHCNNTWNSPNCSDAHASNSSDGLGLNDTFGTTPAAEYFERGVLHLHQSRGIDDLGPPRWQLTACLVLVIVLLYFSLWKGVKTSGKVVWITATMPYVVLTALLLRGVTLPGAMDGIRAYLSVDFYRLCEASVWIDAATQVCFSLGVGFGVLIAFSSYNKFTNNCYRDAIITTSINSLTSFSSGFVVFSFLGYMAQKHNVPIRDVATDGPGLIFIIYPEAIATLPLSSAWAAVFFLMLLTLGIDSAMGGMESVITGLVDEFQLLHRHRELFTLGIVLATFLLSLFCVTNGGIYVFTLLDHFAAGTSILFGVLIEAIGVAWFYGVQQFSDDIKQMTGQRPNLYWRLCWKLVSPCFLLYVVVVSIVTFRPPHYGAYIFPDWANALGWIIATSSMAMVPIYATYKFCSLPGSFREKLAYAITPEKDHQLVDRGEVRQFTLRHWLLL
Description: (§1) Uptake of [^3H]DA was determined in striatal synaptosomes prepared according to the method described by Kokoshka et al. (1998). Briefly, fresh striatal tissue was homogenized in cold 0.32 M sucrose and centrifuged (800×g for 12 min; 4° C.). The supernatant (S1) was then centrifuged (22,000×g for 15 min; 4° C.), and the resulting pellet (P2) was resuspended in ice-cold modified Kreb's buffer (in mM: 126 NaCl, 4.8 KCl, 1.3 CaCl2, 16 sodium phosphate, 1.4 MgSO4, 11 dextrose, 1-ascorbic acid, pH 7.4). Assays were conducted in Kreb's buffer. Each assay tube contained synaptosomal tissue (i.e., resuspended P2 obtained from 1.5 mg of original wet weight striatal tissue) and 1 μM pargyline. Nonspecific values were determined in the presence of 100 μM cocaine. After preincubation of assay tubes for 10 min at 37° C., assays were initiated by the addition of [^3H]DA (0.5 nM final concentration). Samples were incubated at 37° C. for 3 min. Samples were then filtered through Whatman GF/B filters (Brandel, Gaithersburg, Md.) soaked previously in 0.05% polyethylenimine. Filters were washed rapidly 3 times with 3 ml of ice-cold 0.32 M sucrose using a Brandel filtering manifold. […] Remaining resuspended P2 samples were assayed for protein concentrations according to the method of Lowry et al. (1951). In MDMA preincubation experiments, samples were preincubated with 10 μM MDMA for 30 min at 37° C. After 30 min, resuspended P2 fractions were “washed” by centrifugation (22,000×g for 15 min; 4° C.). The resulting pellet (P3) was then resuspeded in ice-cold Kreb's buffer, and once again centrifuged (22,000×g for 15 min; 4° C.) to obtain a P4 pellet that was subsequently resuspended and assayed. [^3H]WIN35428 binding (0.5 nM final concentration) was conducted in phosphate-buffered 0.32 M sucrose, pH 7.4, with synaptosomes obtained from 2 mg (original wet weight) of striatal tissue per reaction tube, and samples were incubated on ice for 2 hr. Samples were then filtered through Whatman GF/B filters (Brandel, Gaithersburg, Md.) soaked previously in 0.05% polyethylenimine. Filters were washed rapidly 3 times with 3 ml of ice-cold 0.32 M sucrose using a Brandel filtering manifold. […] Remaining resuspended P2 samples were assayed for protein concentrations according to the method of Lowry et al. (1951).

[4] = biological target: T2, plasmalemmal DA transporter (DAT) (Rattus norvegicus, UniProt P23977); assay: Plasmalemmal [3H]DA uptake in striatal synaptosomes prepared from treated rats; assay type: in vivo; conditions: αMT 150 mg/kg i.p. 5 and 1 h prior to and 3 h after first MDMA injection, MDMA 4 x 10 mg/kg s.c.
T2 construct: from tissue; host or cells: striatum of male Sprague-Dawley rats (synaptosomes, P2)
T2 sequence (P23977 whole entry): as above
Description: Uptake of [^3H]DA was determined in striatal synaptosomes prepared according to the method described by Kokoshka et al. (1998). Briefly, fresh striatal tissue was homogenized in cold 0.32 M sucrose and centrifuged (800×g for 12 min; 4° C.). The supernatant (S1) was then centrifuged (22,000×g for 15 min; 4° C.), and the resulting pellet (P2) was resuspended in ice-cold modified Kreb's buffer (in mM: 126 NaCl, 4.8 KCl, 1.3 CaCl2, 16 sodium phosphate, 1.4 MgSO4, 11 dextrose, 1-ascorbic acid, pH 7.4). Assays were conducted in Kreb's buffer. Each assay tube contained synaptosomal tissue (i.e., resuspended P2 obtained from 1.5 mg of original wet weight striatal tissue) and 1 μM pargyline. Nonspecific values were determined in the presence of 100 μM cocaine. After preincubation of assay tubes for 10 min at 37° C., assays were initiated by the addition of [^3H]DA (0.5 nM final concentration). Samples were incubated at 37° C. for 3 min. Samples were then filtered through Whatman GF/B filters (Brandel, Gaithersburg, Md.) soaked previously in 0.05% polyethylenimine. Filters were washed rapidly 3 times with 3 ml of ice-cold 0.32 M sucrose using a Brandel filtering manifold. […] Remaining resuspended P2 samples were assayed for protein concentrations according to the method of Lowry et al. (1951). In MDMA preincubation experiments, samples were preincubated with 10 μM MDMA for 30 min at 37° C. After 30 min, resuspended P2 fractions were “washed” by centrifugation (22,000×g for 15 min; 4° C.). The resulting pellet (P3) was then resuspeded in ice-cold Kreb's buffer, and once again centrifuged (22,000×g for 15 min; 4° C.) to obtain a P4 pellet that was subsequently resuspended and assayed. [^3H]WIN35428 binding (0.5 nM final concentration) was conducted in phosphate-buffered 0.32 M sucrose, pH 7.4, with synaptosomes obtained from 2 mg (original wet weight) of striatal tissue per reaction tube, and samples were incubated on ice for 2 hr. Samples were then filtered through Whatman GF/B filters (Brandel, Gaithersburg, Md.) soaked previously in 0.05% polyethylenimine. […]

DAT [5] = biological target: T1, DAT; assay: [3H]WIN35428 binding in striatal synaptosomes prepared from treated rats; assay type: in vivo; conditions: αMT 150 mg/kg i.p., MDMA 4 x 10 mg/kg s.c.
Description: as §1

VMAT-2 [6] = assay: VMAT-2 immunoreactivity in striatal subcellular fractions (P2, P3, S3) of treated rats (Western blot); assay type: in vivo, rat; conditions: 1 h
Description: Striatal synaptosomes were prepared from rats decapitated 1 h after treatment as previously described (Fleckenstein et al., 1997). Briefly, striatal tissue was homogenized in cold 0.32 M sucrose and centrifuged (800×g for 12 min; 4° C.). The supernatant (S1) was then centrifuged (22,000×g for 15 min; 4° C.) and the resulting pellet (P2, synaptosomal fraction) was resuspended at 50 mg original wet weight/ml in cold water and a portion saved for western blot analysis. The remainder of the synaptosomal sample was centrifuged for 20 min at 22,000×g (4° C.) to pellet lysed synaptosomal membranes (P3, synaptosomal membrane fraction), which were then resuspended at 50 mg original wet weight/ml and saved for western blot analysis. Prior to resuspension of the plasmalemmal membrane fraction the supernatant (S3, vesicle-enriched fraction) was removed and saved for western blot analysis.
Binding of VMAT-2 antibody was performed using 60 μl aliquots of synaptosomal (P2), synaptosomal membrane (P3), or vesicle-enriched (S3) preparations. Each aliquot was added to 20 μl of loading buffer (final concentration: 2.25% sodium dodecyl sulfate, 18% glycerol, 180 mM Tris base (pH 6.8), 10% β-mercapto-ethanol and bromophenol blue), boiled for 10 min, and loaded on a 10% sodium dodecyl sulfate-polyacrylamide gel. Following electrophoresis, samples were transferred to polyvinlylidene difluoride membrane, blocked with 5% nonfat dry milk in Tris-buffered saline with tween (250 mM NaCl, 50 mM Tris pH 7.4 and 0.05% Tween 20), and probed with the VMAT-2 antibody (provided by J.W.H.). Bound antibody was visualized with HRP-conjugated goat anti-rabbit antibody, and antigen-antibody complexes were visualized by chemiluminescence. Multiple exposures of blots were obtained to ensure development within the linear range of the film. Bands on blots were quantified by densitometry using Kodak 1D image-analysis software.
Fresh striatal tissue was homogenized in ice-cold 0.32 M sucrose and centrifuged (800×g for 12 min; 4° C.). […] Resuspended tissue was aliquoted into two test tubes. One aliquot was centrifuged (22,000×g for 10 min; 4° C.) to separate plasmalemmal membranes from the synaptic vesicle-enriched fraction. The resulting supernatant (S3) contained the vesicular subcellular fraction of interest, and the pellets (P3; plasmalemmal membrane fraction) were resuspended in cold distilled deionized water.
VMAT-2 antibody was purchased from Chemicon (Temecula, Calif.; AB1767). Binding of VMAT-2 antibody was performed using 60 μl of whole synaptosomal, plasmalemmal membrane or vesicle subcellular fractions. Samples were added to 20 μl of loading buffer (final concentration: 2.25% SDS, 18% glycerol, 180 mM Tris Base (pH 6.8), 10% […] and bromophenol blue). Approximately 60 μg protein of the whole synaptosomal fraction, 40 μg protein of the plasmalemmal membrane fraction or 20 μg protein of the vesicle subcellular fraction was loaded per well in a 10% SDS-polyacrylamide gel. Following electrophoresis, samples were transferred to polyvinylidene difluoride hybridization transfer membrane (New England Nuclear (NEN), Boston, Mass.). All subsequent incubation steps were performed at room temperature while shaking. Each membrane was first blocked for 2 h in 100 ml of tris buffer saline with tween (TBST; 250 mM NaCl, 50 mM tris pH 7.4 and 0.05% tween 20) containing 5% nonfat dry milk. Each membrane was then incubated with anti-VMAT-2 antibody (1:4000 dilution) in 13 ml of TBST with 5% milk for 1 h and then washed 5 times (2×1 min wash; 3×5 min wash) in 70 ml TBST with 5% milk.

VMAT-2 [7] = biological target: VMAT-2 (Mus musculus, UniProt Q8BRU6); assay: Vesicular [3H]dopamine uptake in striatal vesicles prepared from treated mice; assay type: in vivo; conditions: antagonist 2 mg/kg i.p. prior to each methamphetamine injection (4 x 10 mg/kg s.c.), 1 h
Chain of VMAT-2 (Mus musculus, UniProt Q8BRU6) (Q8BRU6 whole entry): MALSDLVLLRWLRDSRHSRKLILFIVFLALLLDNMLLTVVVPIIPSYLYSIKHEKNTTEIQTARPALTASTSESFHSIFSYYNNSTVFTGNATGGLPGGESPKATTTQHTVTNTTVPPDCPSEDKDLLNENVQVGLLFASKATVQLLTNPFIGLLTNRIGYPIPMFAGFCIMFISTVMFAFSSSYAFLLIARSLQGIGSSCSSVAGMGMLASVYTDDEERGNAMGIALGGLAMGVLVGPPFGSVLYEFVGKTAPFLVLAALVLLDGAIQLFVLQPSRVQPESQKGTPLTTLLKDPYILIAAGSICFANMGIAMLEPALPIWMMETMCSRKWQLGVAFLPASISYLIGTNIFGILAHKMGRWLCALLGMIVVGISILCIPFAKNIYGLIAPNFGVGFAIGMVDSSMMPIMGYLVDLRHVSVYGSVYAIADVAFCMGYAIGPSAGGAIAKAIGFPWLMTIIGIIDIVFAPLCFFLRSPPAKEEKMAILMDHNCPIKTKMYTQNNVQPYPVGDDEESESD
Description: (A. E. Fleckenstein, et al., J. Pharmacol Exp Ther. (1997) 282:834-838). Briefly, fresh tissue was homogenized in ice-cold 0.32 M sucrose. The homogenate was centrifuged (800×g for 12 min; 4° C.), and the supernatant (S1) was carefully removed and centrifuged (22,000×g for 15 min; 4° C.) to obtain the synaptosomal-containing pellet (P2). The resulting P2 were resuspended and homogenized in ice-cold distilled deionized water. Osmolarity was restore by addition 25 mM HEPES and 100 mM potassium tartrate (final concentration; pH 7.5 at 4° C. respectively). […] The resultant S3 removed and MgSO4 added (final concentration of [1 mM] pH 7.5 at 4° C.) and centrifuged at 100,000×g for 45 min. The final P4 were resuspended at 50 mg/ml (original tissue wet weight).

VMAT-2 [8] = biological target: T3, VMAT-2 (Rattus norvegicus, UniProt Q01827); assay: [3H]DHTBZ binding in purified striatal vesicles prepared from treated rats; conditions: rats
T3 sequence (Q01827 whole entry): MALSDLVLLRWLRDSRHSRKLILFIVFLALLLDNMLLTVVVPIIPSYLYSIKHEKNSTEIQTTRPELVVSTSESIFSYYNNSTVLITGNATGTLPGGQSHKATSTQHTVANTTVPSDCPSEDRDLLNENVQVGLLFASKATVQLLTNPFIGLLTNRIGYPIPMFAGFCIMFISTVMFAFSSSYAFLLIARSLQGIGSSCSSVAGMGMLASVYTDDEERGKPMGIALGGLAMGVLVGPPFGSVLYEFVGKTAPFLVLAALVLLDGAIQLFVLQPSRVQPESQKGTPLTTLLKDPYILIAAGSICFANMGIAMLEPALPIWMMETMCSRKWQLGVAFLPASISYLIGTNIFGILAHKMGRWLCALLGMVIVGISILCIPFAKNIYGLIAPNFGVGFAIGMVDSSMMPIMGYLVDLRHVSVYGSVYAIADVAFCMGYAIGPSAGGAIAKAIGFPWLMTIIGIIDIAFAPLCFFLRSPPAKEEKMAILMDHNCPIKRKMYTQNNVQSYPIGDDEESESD
Description: Synaptic vesicles were obtained from synaptosomes prepared from rat striatum as described above. Synaptosomes were resuspended and homogenized in cold distilled deionized water. Osmolarity was restored by addition of HEPES and potassium tartrate 245 and 100 mM (final concentrations; pH 7.5), respectively. Samples were centrifuged for 20 min at 20,000×g (4° C.) to remove lysed synaptosomal membranes. MgSO4 (1 mM, final concentration) was added to the supernatant, which was then centrifuged for 45 min at 100,000×g (4° C.). The resulting vesicular pellet was resuspended in wash buffer at a concentration of 50 mg/ml (original tissue weight). […] Binding of [^3H]DHTBZ was performed as described by Teng et al. (1998). Briefly, 200 μl of the synaptic vesicle preparation (˜6 μg of protein) was incubated in wash buffer in the presence of [^3H]DHTBZ (2 nM final concentration) for 10 min at 25° C. The reaction was terminated by addition of 1 ml of cold wash buffer and rapid filtration through Whatman GF/F filters soaked in 0.5% polyethylenimine. Filters were washed three times with ice-cold wash buffer. Nonspecific binding was determined by coincubation with 20 μM tetrabenazine. All protein concentrations were determined by a BioRad protein assay (Bio-Rad, Richmond, Calif.).
Binding of [^3H]DHTBZ was performed as described by Teng et al. (1998). Briefly, 200 μl (˜6 μg protein) of the synaptic vesicle preparation was incubated in wash buffer in the presence of [^3H]DHTBZ (2 nM final concentration except in kinetic analyses wherein 0.25-500 nM DHTBZ was employed) for 10 m in at 25° C. The reaction was terminated by addition of 1 ml cold wash buffer and rapid filtration through Whatman GF/F filters soaked in 0.5% polyethylenimine. Filters were washed three times with ice-cold wash buffer. Radioactivity trapped in filters was counted using a liquid scintillation counter. Nonspecific binding was determined by coincubation with 20 μM TBZ. All protein concentrations were determined by a Bio-Rad protein assay (Bio-Rad Inc.).
Binding of[^3H]DHTBZ was performed as described by Teng et al. (1998). Briefly, 200 μl (˜5 μg protein) of the synaptic vesicle preparation was incubated in wash buffer in the presence of [^3H]DHTBZ (2 nM final concentration except in kinetic analyses wherein 0.25-500 nM DHTBZ was employed) for 10 m in at 25° C. The reaction was terminated by addition of 1 ml cold wash buffer and rapid filtration through Whatman GF/F filters soaked in 0.5% polyethylenimine. Filters were washed three times with ice-cold wash buffer. Radioactivity trapped in filters was counted using a liquid scintillation counter. Nonspecific binding was determined by coincubation with 20 μM TBZ. All protein concentrations were determined by a Bio-Rad protein assay (Bio-Rad Inc.).

VMAT-2 [9] = biological target: T3, VMAT-2; assay type: in vivo; parameters: purified striatal vesicles prepared from treated rats; from tissue; host or cells: striatum of male Sprague-Dawley rats (synaptic vesicles; P2, P3, S3 fractions)
Description: Osmolarity was restored by addition of N-(2-hydroxyethyl)-piperazine-N′-2-ethanesulfonic acid (HEPES) and potassium tartrate 25 mM and 100 mM (final concentrations; pH 7.5 at 4° C.), respectively.

COC(=O)[C@H]1[C@H]2C[C@@H]3c4[nH]c5cc(OC)ccc5c4CCN3C[C@H]2C[C@@H](OC(=O)c2cc(OC)c(OC)c(OC)c2)[C@@H]1OC [reserpine]
depletion in total striatal tissue DA levels ([1]; rats, reserpine 10 mg/kg i.p. 6 and 1 h before decapitation): > 98%
striatal vesicular DA levels [2]: below the detection limit

CC(=O)O.Cn1cc(C2=C(c3cn(CCCN)c4ccccc34)C(=O)NC2=O)c2ccccc21 [Ro31-7549, 2-[1-3(Aminopropyl)indol-3-yl]-3(1-methylindol-3-yl)maleimide, acetate]
effect of PKC inhibitor pretreatment on the MDMA-induced deficit in vitro (DAT [3]): attenuated

CC(N)(Cc1ccc(O)cc1)C(=O)O.Cl (stereo not drawn) [αMT, α-methyl-p-tyrosine hydrochloride]
effect of αMT pretreatment on the MDMA-induced decrease in DAT activity [4]: did not affect
effect of αMT pretreatment on the MDMA-induced deficit in WIN35428 binding (DAT [5]): did not prevent
striatal DA levels ([1]; αMT-treated rats, 150 mg/kg i.p.): 10.1±2.0 pg/1 μg protein

CCCCCCCCCCCCC(=O)N1CCCCC1CNC(=O)[C@@H](N)CCCCN.Cl.Cl (some centres unmarked) [NPC15437]
effect of PKC inhibitor pretreatment on the MDMA-induced deficit in vitro (DAT [3]): attenuated

COC(=O)[C@H]1[C@@H](OC(=O)c2ccccc2)C[C@@H]2CC[C@H]1N2C [cocaine, (−)cocaine hydrochloride]
decrease in VMAT-2 immunoreactivity in the P3 (synaptosomal membrane) fraction (VMAT-2 [6]; cocaine 30 mg/kg i.p. single): 33%
increase in VMAT-2 immunoreactivity in the S3 (vesicle-enriched) fraction (VMAT-2 [6]; cocaine 30 mg/kg i.p. single): 80%

CCc1cc(Cl)c(OC)c(C(=O)NC[C@@H]2CCCN2CC)c1O [eticlopride, (−)-Eticlopride hydrochloride]
effect of antagonist pretreatment on the methamphetamine-induced decrease in vesicular dopamine uptake (VMAT-2 [7]): attenuated
effect of antagonist pretreatment on the MPD-induced increase in VMAT-2 immunoreactivity in the vesicular subcellular fraction (VMAT-2 [6]; antagonist 0.5 mg/kg i.p. 15 min prior to MPD 40 mg/kg s.c.): completely prevented
[3H]DHTBZ binding after antagonist per se (VMAT-2 [8]; antagonist 0.5 mg/kg i.p.): did not affect
effect of antagonist pretreatment on the MPD-induced increase in [3H]DHTBZ binding (VMAT-2 [8]; antagonist 0.5 mg/kg i.p. 15 min prior to MPD 40 mg/kg s.c., 1 h): completely prevented
effect of antagonist pretreatment on the METH-induced decrease in vesicular [3H]DA uptake (VMAT-2 [9]; rat, in vivo): attenuated
effect of eticlopride on the MDMA-induced decrease in vesicular DA uptake (VMAT-2 [9]; rat, in vivo): attenuated
vesicular [3H]DA uptake after antagonist per se (VMAT-2 [9]; rats, antagonist 0.5 mg/kg i.p.): did not affect
effect of antagonist pretreatment on the MPD-induced increase in vesicular [3H]DA uptake (VMAT-2 [9]; rats, antagonist 0.5 mg/kg i.p. 15 min prior to MPD 40 mg/kg s.c., 1 h): attenuated
